Experiments:
TAZ = assay: Nuclear TAZ levels by Western blot; assay type: cell-based, human
Protocol: (§1) MCF7 cells were grown to subconfluence in the presence or absence of doxycycline for 72 hr in full media as described above. Cells were then treated in minimal DMEM (Sigma, D5030) containing 0.1% BSA, 1% L-glutamine, 2% Tet-Approved FBS, and 1 mM glucose for 16 hours followed by treatment with 2 ng/mL TGFβ (R&D Systems, 240-B-002) for 48 hours in the presence or absence of EGTA to examine sE-Cad expression levels, TAZ localization, and HER2 expression levels. Cells were washed with PBS and scraped from plates. Cytoplasmic and nuclear lysates were obtained using the Low/High Salt extraction method. Cytoplasmic extracts were obtained by resuspending cells in NP40 containing Hypotonic Buffer (10 mM HEPES pH 7.4, 1.5 mM MgCl2, 10 mM KCI, 0.5% NP40) followed by a 30 min incubation on ice and centrifiugation. Nuclear extracts were obtained by resuspending the nuclear pellet in an equal volume of low salt buffer (10 mM HEPES, 25% glycerol, 1.5 mM MgCl2, 20 mM KCI, 0.2 mM EDTA) followed by high salt buffer (10 mM HEPES, 25% glycerol, 1.5 mM MgCl2, 800 mM KCl, 0.2 mM EDTA) followed by vortexing, 30 min incubation on ice, another vortex, and centrifugation. Samples were resolved on 4-12% Bis-Tris polyacrylamide gradient gels (Invitrogen) and transferred to PVDF membranes (Millipore). Membranes were probed with antibodies listed below followed by development with enhanced ECL (Millipore). […] Protein levels were normalized to actin and quantified using NIH Image-J software.
(§2) MCF7 Tet.OFF cells were pretreated in the absence or presence of doxycycline for 3 days. […] Nuclear and cytoplasmic extracts were obtained using High/Low salt extraction method and protein levels analyzed by Western blot (see above).

[1] = Maximum tolerated dose (MTD) test; assay type: in vivo; details: up to 20 mg/kg, 2 weeks, athymic nude mice
Text: Animal maintenance and experimental protocols are in accordance with the guidelines of the University of Maryland's Institutional Animal Care and Use Committee.

BC cells = assay: Anchorage-independent cell growth assay (soft agar); assay type: cell-based, human; details: 50 μM
Protocol: Cells (10,000) were mixed in 1 ml of 0.3% low-melting agarose over a 0.6% agar bottom layer in normal growth media. The medium (600 μl) with or without compound 1 (50 μM) on soft agar was changed three times a week for 2-3 weeks. Images of MDA-231 and MCF7 were taken using Nikon Eclipse TE-2000S microscope with Zen Pro image software, and of MDA-468 using Olympus CKX41 microscope with Q-Capture Pro 7 image software at indicated magnifications under the same exposure settings for corresponding vehicle and drug treatments.

sE-Cad = sE-Cad production by Western blot; assay type: cell-based, human
Protocol: as §1, with “(Millipore).” for “(Millipore). Membranes were probed with antibodies listed below followed by development with enhanced ECL (Millipore).”
To assay for sE-Cad levels, MCF7 Tet.OFF cells were grown in the absence or presence of doxycycline for 3 days and then transfected with TAZ siRNA #1 using Lipofectamine-2000. […] After 72 hours, nuclear and cytoplasmic extracts were obtained using the High/Low salt extraction method described above and analyzed for sE-Cad, TAZ, and RUNX2. Protein levels were normalized to actin and quantified using NIH Image-J software.
as §2

RUNX2 [2] = molecular target: T1, RUNX2 (Homo sapiens, UniProt Q13950); assay: Western blot of RUNX2, RUNX1, CBF-β; assay type: cell-based; design: endogenous in cells; host or cells: MDA-231, MDA-468
Protocol: Whole cell lysates extracted in RIPA buffer (Upstate) were separated on 4-12% gradient SDS-PAGE and transferred to nitrocellulose membrane. The blots were incubated with specific antibodies for each protein overnight at 4° C. After antibody washing, the blots were reacted with their respective secondary antibody and detected with enhanced chemiluminescence reagents (Millipore) according to the supplier's protocol. Antibodies for proteins were purchased as below. RUNX1, RUNX2, CBF-β, ubiquitin and caspase-3 (Cell Signaling Technologies), S451-p-RUNX2 (Bioss Gentaur, Belgium), RUNX3 and Glut-1 (Millipore, Calif.), β-actin and RUNX2 antibody for IHC (Sigma-Aldrich), and Ki-67 for IHC (Bethyl Laboratories, Inc, TX).

RUNX2 [3] = molecular target: T1, RUNX2; assay: D-ELISA DNA binding assay; design: endogenous in cells; details: read-out: IC50 in D-ELISA DNA binding assays (RUNX2 DNA binding)
Protocol: A microtiter plate-based D-ELISA was performed as described. Briefly, nuclear proteins were isolated from HBME-1 cells that express all three RUNX proteins and bound to double-stranded DNA oligonucleotides of human osteocalcin and MMP13 (forward primer: 5′-TTCTACCACAAACCACACTCGTTCTACCACAAACCACACTCGTTCTACCACAAACCACACTCG-Biotin-3′, SEQ ID NO: 4 and reverse primer: 5′-CGAGTGTGGTTTGTGGTAGAACGAGTGTGGTTTGTGGTAGAACGAGTGTGGTTTGTGGTAGAA-Biotin-3′, SEQ ID NO: 5). Vehicle (0.05% DMSO) or compound 1 at different concentrations were incubated with the proteins and DNA oligonucleotide mixture in Avidin-coated 96-well plates. DNA-bound RUNX proteins were captured with specific antibodies (Cell Signaling Technologies). Primary and secondary antibody dilution was 1:500 and 1:10,000, respectively.

[4] = system: MDA-231, MCF7, MDA-468, BT474 cells; assay: Combination of compound 1 and CDK inhibitors, cell proliferation and colony assays; assay type: cell-based, human

T1 sequence (Q13950 whole entry): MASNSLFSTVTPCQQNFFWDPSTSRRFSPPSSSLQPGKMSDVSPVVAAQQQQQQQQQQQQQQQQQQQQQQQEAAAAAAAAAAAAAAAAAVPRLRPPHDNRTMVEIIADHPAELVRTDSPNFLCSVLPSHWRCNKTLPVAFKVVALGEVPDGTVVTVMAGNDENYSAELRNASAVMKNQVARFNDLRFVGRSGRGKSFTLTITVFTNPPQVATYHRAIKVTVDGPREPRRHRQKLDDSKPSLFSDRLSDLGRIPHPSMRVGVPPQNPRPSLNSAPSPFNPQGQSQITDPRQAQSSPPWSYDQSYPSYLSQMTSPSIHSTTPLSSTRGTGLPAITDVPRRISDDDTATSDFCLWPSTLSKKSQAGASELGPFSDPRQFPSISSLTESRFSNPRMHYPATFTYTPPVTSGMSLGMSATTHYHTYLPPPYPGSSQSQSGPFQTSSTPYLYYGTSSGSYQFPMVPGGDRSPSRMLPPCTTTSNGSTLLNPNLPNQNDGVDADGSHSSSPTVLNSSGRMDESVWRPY

In the case of O=C(O)C1C2C=CC(C2)C1C(=O)Nc1ccc(Cl)c(Cl)c1 (centres unmarked) [compound 1, 3-(N-(3,4-dichlorophenyl)carbamoyl)-5-norbornene-2-carboxylic acid], the “reduction in nuclear TAZ levels compared to vehicle” value (TAZ; HCC1428 cells expressing endogenous RUNX2) is reported as 80%, the “nuclear TAZ levels” value (TAZ; RUNX2 negative cells (doxycycline +), over 72 hr) is reported as “no affect” and the TAZ nuclear levels (TAZ; RUNX2 positive MCF7 cells (doxycycline -), 50 μM, within 24 hr) is reported as “lowered”. For the same molecule, the “influence on body weight or general health” value [1] was “no detectable influence”, the anchorage-independent cell growth (BC cells; 2-3 weeks) was “strongly inhibited” and the “colony size relative to control” value (BC cells; MDA-231, MCF7, MDA-468) was < 1/10. For the same molecule, the “decrease in sE-Cad production” value (sE-Cad; RUNX2 negative cells (doxycycline+)) was 2 fold, the “decline of sE-Cad levels” value (sE-Cad; RUNX2 positive cells, 50 μM, by 72 hr) was roughly 20 fold and the “increase of sE-Cad production” value (sE-Cad; RUNX2 positive cells, 50 μM, first 24 hr) was 3.5 fold. For the same molecule, the “nuclear translocation of RUNX2 protein” value (RUNX2 [2]) was “did not block or attenuate”, the S451-p-RUNX2 levels (RUNX2 [2]; Empty controls, MDA-468 and MCF7) was “clearly reduced” and the RUNX2 protein stability (RUNX2 [2]; MDA-468 and MDA-231 cells, cycloheximide, 50 μM) was “increased RUNX2 stability”. The IC50 (RUNX2 [3]) was 10 nM and the “growth inhibition of BT474 cells” value [4] was “sensitive”.

— patent publication US11634381B2, “RUNX2 transcription factor inhibitors and uses thereof” (University of Maryland, Baltimore, priority 2015, dated 2023)
